The values that follow come from article PMC3257379 (Amino Acids, 2011).

Positions of bridges follow the written chain, without caps; N, C: chain ends. No end group written: not given here.

In one assay the test system is MDA-MB-435 xenografts. The settings on record: systemic LyP-1 peptide treatment of xenografted tumor mice; ref Laakkonen et al. 2004; cited from earlier work.
The subject of assay [1] is tumor-draining brachial LNs of 4T1 tumor-bearing BALB/C mice. Description: Ex vivo optical. The class given is in vivo, mouse. The note with it: day 21 after tumor inoculation; 0.8 nmol, 24 h post injection; no blocking; n = 3/group.

As to “CGNKRTRGC (disulfide 1-9 (inferred)) [LyP-1]”, the “Effect on tumor growth” value with MDA-MB-435 xenografts is given as “inhibited tumor growth”. Turning to Cy5.5, the “Average signal of tumor-draining LNs” value in assay [1] is recorded as 25.6 ± 0.25 ×10^3 photon/cm^2/s.
